Test results: US20100261719A1, “CHEMICAL COMPOUNDS” (priority 2007, published 2010)

The compounds below were run against Escherichia coli DNA gyrase A/B tetramer (Escherichia coli, UniProt P0AES4+P0AES6) (assay: DNA gyrase supercoiling activity fluorescence polarisation assay). Details: not given.
Escherichia coli DNA gyrase A/B tetramer, sequence (P0AES4 whole entry, one chain of several): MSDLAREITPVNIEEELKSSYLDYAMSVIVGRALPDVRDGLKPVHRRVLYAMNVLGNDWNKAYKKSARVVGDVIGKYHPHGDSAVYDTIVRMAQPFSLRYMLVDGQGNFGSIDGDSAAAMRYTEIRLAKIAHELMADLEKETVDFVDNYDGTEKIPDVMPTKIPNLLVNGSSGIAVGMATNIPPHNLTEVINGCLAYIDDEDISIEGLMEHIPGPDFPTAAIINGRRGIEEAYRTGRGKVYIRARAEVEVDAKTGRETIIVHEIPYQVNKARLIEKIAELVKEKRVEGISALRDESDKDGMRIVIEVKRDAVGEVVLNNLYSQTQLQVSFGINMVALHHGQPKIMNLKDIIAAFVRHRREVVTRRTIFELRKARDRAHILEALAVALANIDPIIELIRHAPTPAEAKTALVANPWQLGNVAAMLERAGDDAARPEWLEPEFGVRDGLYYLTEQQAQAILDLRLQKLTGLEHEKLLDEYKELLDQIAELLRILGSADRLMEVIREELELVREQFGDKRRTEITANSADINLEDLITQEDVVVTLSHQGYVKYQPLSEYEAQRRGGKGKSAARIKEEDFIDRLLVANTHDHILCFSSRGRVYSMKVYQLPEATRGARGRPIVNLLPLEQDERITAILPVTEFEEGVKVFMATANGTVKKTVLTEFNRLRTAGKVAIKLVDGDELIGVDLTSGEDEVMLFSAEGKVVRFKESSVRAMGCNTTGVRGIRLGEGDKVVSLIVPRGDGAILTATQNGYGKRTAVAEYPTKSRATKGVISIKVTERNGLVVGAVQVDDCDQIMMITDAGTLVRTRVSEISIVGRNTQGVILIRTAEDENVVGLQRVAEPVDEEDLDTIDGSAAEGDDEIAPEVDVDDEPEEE
Assay type: biochemical
Procedure: In a black, 384-well polystyrene assay plate, 30 microliters/well of 5 nM Escherichia coli DNA gyrase A/B tetramer and 130 micrograms/ml of topologically relaxed plasmid containing the triplex-forming sequence […] in an assay buffer consisting of 35 mM Tris-HCl (pH 7.5), 24 mM KCl, 4 mM MgCl2, 2 mM dithiothreitol, 1.8 mM spermidine, 5% (v/v) glycerol, 200 nM bovine serum albumin, 0.8% dimethylsulfoxide, and 0.3 mM ATP may be incubated at ambient temperature for (typically 30 minutes) in the absence or presence of 5-10 different concentrations of test compound. The supercoiling reactions may be quenched by the addition of 10 microliters/well of 40 nM oligodeoxynucleotide probe in 3× triplex-forming buffer consisting of 150 mM NaCl, and 150 mM sodium acetate at pH 3.5. The oligodeoxynucleotide probe may be 5′-BODIPY-FL-labeled TTCTTCTTC. After 60 minutes, the fluorescence anisotropy of the BODIPY-FL may be measured in a Tecan Ultra plate reader, using 485 nm excitation and 535 nm emission filters equipped with polarizers. The IC50 may be determined by nonliner regression using two control reactions. The first contains no test compound but 0.8% DMSO (100% activity) while the second control reaction contains 5 uM Ciprofloxacin and 0.8% DMSO (0% activity).
When tested in an in-vitro assay based on the DNA gyrase supercoiling activity fluorescence polarisation assay described above, the E. coli DNA gyrase supercoiling IC50 assay inhibitory activity of the following Examples was measured at the indicated IC50.
`C[C@@H]1CN2c3cc(F)c(C#Cc4cc5ccccc5s4)cc3CC3(C(=O)NC(=O)NC3=O)[C@H]2[C@H](C)O1` (racemic) [Example 29, (2R,4S,4aS)-rel-8-(1-Benzothiophen-2-ylethynyl)-9-fluoro-2,4-dimethyl-1,2,4,4a-tetrahydro-2′H,6H-spiro[1,4-oxazino[4,3-a]quinoline-5,5′-pyrimidine]-2′,4′,6′(1′H,3′H)-trione] gave an IC50 of 20000 nM. Work on `C/C(=N\NC(=O)Nc1ccccc1)c1cc2c(c(F)c1F)N1C[C@@H](C)O[C@@H](C)[C@@H]1C1(C2)C(=O)NC(=O)NC1=O` (relative stereo) [Example 51, (2E)-2-{1-[(2R,4S,4aS)-rel-9,10-Difluoro-2,4-dimethyl-2′,4′,6′-trioxo-1,1′,2,3′,4,4′,4a,6′-octahydro-2′H,6H-spiro[1,4-oxazino[4,3-a]quinoline-5,5′-pyrimidin]-8-yl]ethylidene}-N-phenylhydrazinecarboxamide] yielded an IC50 of 5500 nM. In the case of `C[C@@H]1CN2c3cc(F)c(C#Cc4nncs4)cc3CC3(C(=O)NC(=O)NC3=O)[C@H]2[C@H](C)O1` (relative stereo) [Example 24, (2R,4S,4aS)-rel-9-Fluoro-2,4-dimethyl-8-(1,3,4-thiadiazol-2-ylethynyl)-1,2,4,4a-tetrahydro-2′H,6H-spiro[1,4-oxazino[4,3-a]quinoline-5,5′-pyrimidine]-2′,4′,6′(1′H,3′H)-trione], the IC50 is reported as 350 nM. Compound `C[C@@H]1CN2c3ccc(C#Cc4nccn4C)cc3CC3(C(=O)NC(=O)NC3=O)[C@H]2[C@H](C)O1` (relative stereo) [Example 4, (2R,4S,4aS)-rel-2,4-Dimethyl-8-[(1-methyl-1H-imidazol-2-yl)ethynyl]-1,2,4,4a-tetrahydro-2′H,6H-spiro[1,4-oxazino[4,3-a]quinoline-5,5′-pyrimidine]-2′,4′,6′(1′H,3′H)-trione] has an IC50 of 630 nM. Work on `C[C@H]1CN2c3c(cc(C#Cc4ncccn4)c(F)c3F)CC3(C(=O)NC(=O)NC3=O)[C@@H]2[C@@H](C)O1` (relative stereo) [Example 19, (2S,4R,4aR)-rel-9,10-Difluoro-2,4-dimethyl-8-(pyrimidin-2-ylethynyl)-1,2,4,4a-tetrahydro-2′H,6H-spiro[1,4-oxazino[4,3-a]quinoline-5,5′-pyrimidine]-2′,4′,6′(1′H,3′H)-trione] yielded an IC50 of 520 nM. `C[C@@H]1CN2c3cc(F)c(C#Cc4cncs4)cc3CC3(C(=O)NC(=O)NC3=O)[C@H]2[C@H](C)O1` (relative stereo) [Example 27, (2R,4S,4 aS)-rel-9-Fluoro-2,4-dimethyl-8-(1,3-thiazol-5-ylethynyl)-1,2,4,4a-tetrahydro-2′H,6H-spiro[1,4-oxazino[4,3-a]quinoline-5,5′-pyrimidine]-2′,4′,6′(1′H,3′H)-trione] was tested, and the IC50 was 830 nM. Compound `C[C@@H]1CN2c3c(cc(C(=O)NC4CCNCC4)c(F)c3F)CC3(C(=O)NC(=O)NC3=O)[C@H]2[C@H](C)O1` (relative stereo) [Example 71, (2R,4S,4aS)-rel-9,10-Difluoro-2,4-dimethyl-2′,4′,6′-trioxo-N-(piperidin-4-yl)-1,1′,2,3′,4,4′,4a,6′-octahydro-2′H,6H-spiro[1,4-oxazino[4,3-a]quinoline-5 ,5′-pyrimidine]-8-carboxamide] has an IC50 of 5970 nM. With `C[C@H]1CN2c3c(cc(C#Cc4ncc[nH]4)c(F)c3F)CC3(C(=O)NC(=O)NC3=O)[C@@H]2[C@@H](C)O1` (relative stereo) [Example 16, (2S,4R,4aR)-rel-9,10-Difluoro-8-(1H-imidazol-2-ylethynyl)-2,4-dimethyl-1,2,4,4a-tetrahydro-2′H,6H-spiro[1,4-oxazino[4,3-a]quinoline-5,5′-pyrimidine]-2′,4′,6′(1′H,3′H)-trione] the IC50 was 690 nM. Work on `C[C@H]1CN2c3c(cc(C#Cc4nncs4)c(F)c3F)CC3(C(=O)NC(=O)NC3=O)[C@@H]2[C@@H](C)O1` (relative stereo) [Example 7, (2S,4R,4aR)-rel-9,10-Difluoro-2,4-dimethyl-8-(1,3,4-thiadiazol-2-ylethynyl)-1,2,4,4a-tetrahydro-2′H,6H-spiro[1,4-oxazino[4,3-a]quinoline-5,5′-pyrimidine]-2′,4′,6′(1′H,3′H)-trione] yielded an IC50 of 410 nM. `C[C@@H]1CN2c3c(cc(C(=O)NC4CCNC4)c(F)c3F)CC3(C(=O)NC(=O)NC3=O)[C@H]2[C@H](C)O1` (relative stereo) [Example 70, (2R,4S,4aS)-rel-9,10-Difluoro-2,4-dimethyl-2′,4′,6′-trioxo-N-(pyrrolidin-3-yl)-1,1′,2,3′,4,4′,4a,6′-octahydro-2′H,6H-spiro[1,4-oxazino[4,3-a]quinoline-5,5′-pyrimidine]-8-carboxamide] showed an IC50 of 2910 nM. Compound `CCNC(=O)Nc1ccc2c(c1)CC1(C(=O)NC(=O)NC1=O)[C@H]1[C@H](C)O[C@H](C)CN21` (relative stereo) [Example 72, 1-[(2R,4S,4aS)-rel-2,4-Dimethyl-2′,4′,6′-trioxo-1,1′,2,3′,4,4′,4a,6′-octahydro-2′H,6H-spiro[1,4-oxazino[4,3-a]quinoline-5,5′-pyrimidin]-8-yl]-3-ethylurea] has an IC50 of 10400 nM. `C[C@@H]1CN2c3ccc(NC(=O)Nc4ccccc4)cc3CC3(C(=O)NC(=O)NC3=O)[C@H]2[C@H](C)O1` (relative stereo) [Example 73, 1-[(2R,4S,4aS)-rel-2,4-Dimethyl-2′,4′,6′-trioxo-1,1′,2,3′,4,4′,4a,6′-octahydro-2′H,6H-spiro[1,4-oxazino[4,3-a]quinoline-5,5′-pyrimidin]-8-yl]-3-phenylurea] showed an IC50 of 5020 nM. `C[C@@H]1CN2c3c(cc(C(=O)NC4CCOCC4)c(F)c3F)CC3(C(=O)NC(=O)NC3=O)[C@H]2[C@H](C)O1` (relative stereo) [Example 66, (2R,4S,4aS)-rel-9,10-Difluoro-2,4-dimethyl-2′,4′,6′-trioxo-N-(tetrahydro-2H-pyran-4-yl)-1,1′,2,3′,4,4′,4a,6′-octahydro-2′H,6H-spiro[1,4-oxazino[4,3-a]quinoline-5,5′-pyrimidine]-8-carboxamide] showed an IC50 of 5860 nM. `C[C@@H]1CN2c3c(F)cc(C#Cc4cc5ccccc5s4)cc3CC3(C(=O)NC(=O)NC3=O)[C@H]2[C@H](C)O1` (racemic) [Example 41, (2R,4S,4aS)-rel-8-(1-Benzothiophen-2-ylethynyl)-10-fluoro-2,4-dimethyl-1,2,4,4a-tetrahydro-2′H,6H-spiro[1,4-oxazino[4,3-a]quinoline-5,5′-pyrimidine]-2′,4′,6′(1′H,3′H)-trione] gave an IC50 of 7160 nM. Compound `C[C@@H]1CN2c3c(F)cc(C#Cc4cccnc4)cc3CC3(C(=O)NC(=O)NC3=O)[C@H]2[C@H](C)O1` (relative stereo) [Example 44, (2R,4S,4aS)-rel-10-Fluoro-2,4-dimethyl-8-(pyridin-3-ylethynyl)-1,2,4,4a-tetrahydro-2′H,6H-spiro[1,4-oxazino[4,3-a]quinoline-5,5′-pyrimidine]-2′,4′,6′(1′H,3′H)-trione] has an IC50 of 220 nM. With `C[C@@H]1CN2c3cc(F)c(C#Cc4cccs4)cc3CC3(C(=O)NC(=O)NC3=O)[C@H]2[C@H](C)O1` (relative stereo) [Example 28, (2R,4S,4aS)-rel-9-Fluoro-2,4-dimethyl-8-(thiophen-2-ylethynyl)-1,2,4,4a-tetrahydro-2′H,6H-spiro[1,4-oxazino[4,3-a]quinoline-5,5′-pyrimidine]-2′,4′,6′(1′H,3′H)-trione] the IC50 was 1110 nM. `C[C@@H]1CN2c3c(cc(C#Cc4cnccn4)c(F)c3F)CC3(C(=O)NC(=O)NC3=O)[C@H]2[C@H](C)O1` [Example 79, (2R,4S,4aS)-9,10-Difluoro-2,4-dimethyl-8-(pyrazin-2-ylethynyl)-2,4,4a,6-tetrahydro-1H,1′H-spiro[[1,4]oxazino[4,3-a]quinoline-5,5′-pyrimidine]-2′,4′,6′(3′H)-trione] gave an IC50 of 400 nM. `CC(=O)N/N=C/c1cc2c(c(F)c1F)N1C[C@@H](C)O[C@@H](C)[C@@H]1C1(C2)C(=O)NC(=O)NC1=O` (relative stereo) [Example 23, N′-{(E)-[(2R,4S,4aS)-rel-9,10-Difluoro-2,4-dimethyl-2′,4′,6′-trioxo-1,1′,2,3′,4,4′,4a,6′-octahydro-2′H,6H-spiro[1,4-oxazino[4,3-a]quinoline-5,5′-pyrimidin]-8-yl]methylidene}acetohydrazide] gave an IC50 of 1030 nM. `C[C@@H]1CN2c3c(F)cc(C#Cc4nccs4)cc3CC3(C(=O)NC(=O)NC3=O)[C@H]2[C@H](C)O1` (relative stereo) [Example 38, (2R,4S,4aS)-rel-10-Fluoro-2,4-dimethyl-8-(1,3-thiazol-2-ylethynyl)-1,2,4,4a-tetrahydro-2′H,6H-spiro[1,4-oxazino[4,3-a]quinoline-5,5′-pyrimidine]-2′,4′,6′(1′H,3′H)-trione] gave an IC50 of 760 nM.

Same assay, conditions: 5 nM enzyme, 0.3 mM ATP, relaxed plasmid, fluorescence anisotropy readout; read-out: E. coli DNA gyrase supercoiling IC50
With “(2R,4S,4aS)-rel-9,10-Difluoro-2,4-dimethyl-8-[(E)-(morpholin-4-ylimino)methyl]-1,2,4,4a-tetrahydro-2′H,6H-spiro[1,4-oxazino[4,3-a]quinoline-5,5′-pyrimidine]-2′,4′,6(1′H,3′H)-trione [Example 22]” the IC50 was 1570 nM. Compound “(2R,4S,4aS)-rel-10-Fluoro-2,4-dimethyl-8-[(1-methyl-1H-imidazol-2-yl)ethynyl]-1,2,4,4a-tetrahydro-2′H,6H-spiro[1,4-oxazino[4,3-a]quinoline-5,5′-pyrimidine]-2′,4′,6(1′H,3′H)-trione [Example 42]” has an IC50 of 640 nM.
